Experimental data as given in the NIST ThermoML archive (doi:10.1021/je300941v).
± gives the expanded uncertainty stated by the source.

Assay: xn = mol fraction of the nth substance listed
Conditions: 101 kPa, Liquid, Vibrating tube method

`CCCC[N+]1(C)CCCC1.O=S(=O)([N-]S(=O)(=O)C(F)(F)F)C(F)(F)F` + CNC=O showed a mass density (293.15 K, x1 = 0.0246) of 1055.01 ± 0.28 kg/m3, a mass density (293.15 K, x1 = 0.0444) of 1087.36 ± 0.31 kg/m3 and a mass density (293.15 K, x1 = 0.0743) of 1124.18 ± 0.34 kg/m3. The mass density (293.15 K, x1 = 0.1571) was 1192.03 ± 0.4 kg/m3, the mass density (293.15 K, x1 = 0.2195) was 1227.49 ± 0.43 kg/m3 and the mass density (293.15 K, x1 = 0.2768) was 1253.4 ± 0.45 kg/m3. It also gave a mass density (293.15 K, x1 = 0.3721) of 1288.07 ± 0.49 kg/m3, a mass density (293.15 K, x1 = 0.4755) of 1318.98 ± 0.51 kg/m3 and a mass density (293.15 K, x1 = 0.588) of 1344.35 ± 0.53 kg/m3. For the same compound, the mass density (293.15 K, x1 = 0.631) was 1352.66 ± 0.54 kg/m3, the mass density (293.15 K, x1 = 0.7045) was 1364.77 ± 0.54 kg/m3 and the mass density (293.15 K, x1 = 0.7807) was 1375.58 ± 0.55 kg/m3. The mass density (293.15 K, x1 = 0.9067) was 1390.15 ± 0.57 kg/m3, the mass density (298.15 K, x1 = 0.0246) was 1050.43 ± 0.28 kg/m3 and the mass density (298.15 K, x1 = 0.0444) was 1082.72 ± 0.3 kg/m3. It also gave a mass density (298.15 K, x1 = 0.0743) of 1119.6 ± 0.33 kg/m3, a mass density (298.15 K, x1 = 0.1571) of 1187.22 ± 0.4 kg/m3 and a mass density (298.15 K, x1 = 0.2195) of 1222.75 ± 0.43 kg/m3. For the same compound, the mass density (298.15 K, x1 = 0.2768) was 1248.66 ± 0.45 kg/m3, the mass density (298.15 K, x1 = 0.3721) was 1283.27 ± 0.48 kg/m3 and the mass density (298.15 K, x1 = 0.4755) was 1314.25 ± 0.51 kg/m3. The mass density (298.15 K, x1 = 0.588) was 1339.65 ± 0.53 kg/m3, the mass density (298.15 K, x1 = 0.631) was 1347.99 ± 0.53 kg/m3 and the mass density (298.15 K, x1 = 0.7045) was 1360 ± 0.54 kg/m3. For the same compound, the mass density (298.15 K, x1 = 0.7807) was 1370.92 ± 0.55 kg/m3, the mass density (298.15 K, x1 = 0.9067) was 1385.5 ± 0.56 kg/m3 and the mass density (303.15 K, x1 = 0.0246) was 1045.86 ± 0.28 kg/m3. It also gave a mass density (303.15 K, x1 = 0.0444) of 1078.08 ± 0.3 kg/m3, a mass density (303.15 K, x1 = 0.0743) of 1114.93 ± 0.33 kg/m3 and a mass density (303.15 K, x1 = 0.1571) of 1182.56 ± 0.4 kg/m3. For the same compound, the mass density (303.15 K, x1 = 0.2195) was 1218 ± 0.43 kg/m3, the mass density (303.15 K, x1 = 0.2768) was 1243.85 ± 0.45 kg/m3 and the mass density (303.15 K, x1 = 0.3721) was 1278.56 ± 0.48 kg/m3. For the same compound, the mass density (303.15 K, x1 = 0.4755) was 1309.5 ± 0.51 kg/m3, the mass density (303.15 K, x1 = 0.588) was 1334.96 ± 0.52 kg/m3 and the mass density (303.15 K, x1 = 0.631) was 1343.33 ± 0.53 kg/m3. It also gave a mass density (303.15 K, x1 = 0.7045) of 1355.4 ± 0.54 kg/m3, a mass density (303.15 K, x1 = 0.7807) of 1366.37 ± 0.55 kg/m3 and a mass density (303.15 K, x1 = 0.9067) of 1380.94 ± 0.56 kg/m3. The mass density (308.15 K, x1 = 0.0246) was 1041.32 ± 0.27 kg/m3, the mass density (308.15 K, x1 = 0.0444) was 1073.48 ± 0.3 kg/m3 and the mass density (308.15 K, x1 = 0.0743) was 1110.11 ± 0.33 kg/m3. It also gave a mass density (308.15 K, x1 = 0.1571) of 1177.83 ± 0.39 kg/m3, a mass density (308.15 K, x1 = 0.2195) of 1213.28 ± 0.42 kg/m3 and a mass density (308.15 K, x1 = 0.2768) of 1239.09 ± 0.44 kg/m3. For the same compound, the mass density (308.15 K, x1 = 0.3721) was 1273.79 ± 0.48 kg/m3, the mass density (308.15 K, x1 = 0.4755) was 1304.78 ± 0.5 kg/m3 and the mass density (308.15 K, x1 = 0.588) was 1330.34 ± 0.52 kg/m3. For the same compound, the mass density (308.15 K, x1 = 0.631) was 1338.74 ± 0.52 kg/m3, the mass density (308.15 K, x1 = 0.7045) was 1350.82 ± 0.53 kg/m3 and the mass density (308.15 K, x1 = 0.7807) was 1361.76 ± 0.54 kg/m3. For the same compound, the mass density (308.15 K, x1 = 0.9067) was 1376.4 ± 0.55 kg/m3, the mass density (313.15 K, x1 = 0.0246) was 1036.71 ± 0.27 kg/m3 and the mass density (313.15 K, x1 = 0.0444) was 1068.79 ± 0.29 kg/m3. For the same compound, the mass density (313.15 K, x1 = 0.0743) was 1105.37 ± 0.32 kg/m3, the mass density (313.15 K, x1 = 0.1571) was 1173.12 ± 0.39 kg/m3 and the mass density (313.15 K, x1 = 0.2195) was 1208.51 ± 0.42 kg/m3. It also gave a mass density (313.15 K, x1 = 0.2768) of 1234.35 ± 0.44 kg/m3, a mass density (313.15 K, x1 = 0.3721) of 1269.04 ± 0.47 kg/m3 and a mass density (313.15 K, x1 = 0.4755) of 1300.03 ± 0.5 kg/m3. It also gave a mass density (313.15 K, x1 = 0.588) of 1325.69 ± 0.52 kg/m3, a mass density (313.15 K, x1 = 0.631) of 1334.09 ± 0.52 kg/m3 and a mass density (313.15 K, x1 = 0.7045) of 1346.19 ± 0.53 kg/m3. The mass density (313.15 K, x1 = 0.7807) was 1357.23 ± 0.54 kg/m3, the mass density (313.15 K, x1 = 0.9067) was 1371.81 ± 0.55 kg/m3 and the mass density (318.15 K, x1 = 0.0246) was 1032 ± 0.27 kg/m3. It also gave a mass density (318.15 K, x1 = 0.0444) of 1064.04 ± 0.29 kg/m3, a mass density (318.15 K, x1 = 0.0743) of 1100.74 ± 0.32 kg/m3 and a mass density (318.15 K, x1 = 0.1571) of 1168.24 ± 0.39 kg/m3. For the same compound, the mass density (318.15 K, x1 = 0.2195) was 1203.7 ± 0.42 kg/m3, the mass density (318.15 K, x1 = 0.2768) was 1229.57 ± 0.44 kg/m3 and the mass density (318.15 K, x1 = 0.3721) was 1264.27 ± 0.47 kg/m3. The mass density (318.15 K, x1 = 0.4755) was 1295.32 ± 0.5 kg/m3, the mass density (318.15 K, x1 = 0.588) was 1320.95 ± 0.51 kg/m3 and the mass density (318.15 K, x1 = 0.631) was 1329.42 ± 0.52 kg/m3. It also gave a mass density (318.15 K, x1 = 0.7045) of 1341.54 ± 0.52 kg/m3, a mass density (318.15 K, x1 = 0.7807) of 1352.53 ± 0.53 kg/m3 and a mass density (318.15 K, x1 = 0.9067) of 1367.24 ± 0.55 kg/m3. The mass density (323.15 K, x1 = 0.0246) was 1027.24 ± 0.26 kg/m3, the mass density (323.15 K, x1 = 0.0444) was 1059.25 ± 0.3 kg/m3 and the mass density (323.15 K, x1 = 0.0743) was 1095.89 ± 0.33 kg/m3. For the same compound, the mass density (323.15 K, x1 = 0.1571) was 1163.34 ± 0.39 kg/m3, the mass density (323.15 K, x1 = 0.2195) was 1198.78 ± 0.41 kg/m3 and the mass density (323.15 K, x1 = 0.2768) was 1224.76 ± 0.43 kg/m3. It also gave a mass density (323.15 K, x1 = 0.3721) of 1259.52 ± 0.47 kg/m3, a mass density (323.15 K, x1 = 0.4755) of 1290.63 ± 0.49 kg/m3 and a mass density (323.15 K, x1 = 0.588) of 1316.2 ± 0.51 kg/m3. It also gave a mass density (323.15 K, x1 = 0.631) of 1324.65 ± 0.51 kg/m3, a mass density (323.15 K, x1 = 0.7045) of 1336.77 ± 0.52 kg/m3 and a mass density (323.15 K, x1 = 0.7807) of 1347.89 ± 0.53 kg/m3. For the same compound, the mass density (323.15 K, x1 = 0.9067) was 1362.53 ± 0.54 kg/m3.
